Results from patent US7105513B2, “Acylated, heteroaryl-condensed cycloalkenylamines and their use as pharmaceuticals” (Sanofi-Avertis Deutschland GmbH, priority 2002, dated 2006).
Where a name gives a salt, the structure may show the parent alone.

Test system: eNOS promoter
Experiment: Activation of eNOS transcription (eNOS promoter-luciferase reporter gene assay)
Assay type: cell-based
Details: Homo sapiens, Endothelial cell, 18 h, human endothelial cell line stably transfected with eNOS promoter-firefly luciferase construct; 18 h incubation; EC50 determined graphically; read-out: EC50 of transcription induction ratio (TIR)
Protocol: Determination of Activation of eNOS Transcription
Activation of eNOS transcription was determined as described in detail in Li et al., “Activation of protein kinase C alpha and/or epsilon enhances transcription of the human endothelial nitric oxide synthase gene”, Mol. Pharmacol. 53 (1998) 630, the content of which is incorporated herein by reference.
Briefly, a 3.5 kB long fragment 5′ of the starting codon of the eNOS gene was cloned, sequenced and cloned in firefly luciferase expression plasmids to monitor activation of the eNOS promoter by reporter gene activity. A human endothelial cell line stable transfected and expressing this promoter-reporter construct was used for compound testing. Cells were incubated for 18 h with compounds.
All compounds were dissolved in sterile dimethyl sulfoxide (DMSO). A final concentration of 0.5% DMSO in complete medium was allowed. Induction of reporter gene expression in these cells was measured using a standard luciferase assay system (Promega, Cat. No E150) according to the manufacturer's instructions. Luciferase induction in cells incubated with compounds were compared to those incubated with solvent alone. The ratio of both activities (transcription induction ratio, TIR) was plotted as a function of compound concentration,. Typically, TIR values started at low concentrations at a ratio of 1, indicating no compound effect, and extended up to a maximum TIR value TIR(max) which indicates the increase of the eNOS transcription. EC50 values of transcription induction ratios as a function of compound concentration were determined graphically.

Compound	EC50 [µM]
Cc1ccc(C(=O)NC2Cc3cccnc3C2)c(C)n1 (single isomer, unassigned; enantiomer 1) [Example 5, N-(6,7-Dihydro-5H-[1]pyrindin-6-yl)-2,6-dimethylnicotinamide (enantiomer 1)]	3.3
COc1ccc(C(=O)NC2Cc3cccnc3C2)cn1 (single isomer, unassigned; enantiomer 1) [Example 6, N-(6,7-Dihydro-5H-[1]pyrindin-6-yl)-6-methoxynicotinamide (enantiomer 1)]	12
Cc1nc2ccc(C(=O)NC3Cc4cccnc4C3)cc2[nH]1 (single isomer, unassigned; enantiomer 1) [Example 7, 2-Methyl-3H-benzimidazole-5-carboxylic acid (6,7-dihydro-5H-[1]pyrindin-6-yl)amide (enantiomer 1)]	23
COCc1ccc(C(=O)NC2Cc3cccnc3C2)cn1 (single isomer, unassigned; enantiomer 1) [Example 8, N-(6,7-Dihydro-5H-[1]pyrindin-6-yl)-6-methoxymethyinicotinamide (enantiomer 1)]	30
O=C(NC1Cc2cccnc2C1)c1ccc2c(c1)OC(F)(F)O2 (single isomer, unassigned; enantiomer 1) [Example 9, 2,2-Difluorobenzo[1,3]dioxole-5-carboxylic acid (6,7-dihydro-5H-[1]pyrindin-6-yl)amide (enantiomer 1), trifluoroacetic acid salt]	0.93
O=C(NC1Cc2cccnc2C1)c1ccc(Cl)cc1 (single isomer, unassigned; enantiomer 1) [Example 10, 4-Chloro-N-(6,7-dihydro-5H-[1]pyrindin-6-yl)benzamide (enantiomer 1), trifluoroacetic acid salt]	0.8
Cc1cnc(C(=O)NC2Cc3ccsc3C2)c(N)n1 (stereo not drawn) [Example 12, 3-Amino-5-methylpyrazine-2-carboxylic acid (5,6-dihydro4H-cyclopenta[b]thiophen-5-yl)amide]	11
COc1ccc(C(=O)NC2Cc3ccsc3C2)cn1 (stereo not drawn) [Example 14, N-(5,6-Dihydro-4 H-cyclopenta[b]thiophen-5-yl)-6-methoxynicotinamide]	2.4
Cc1c(C(=O)NC2Cc3ccsc3C2)cnn1-c1ccccc1 (stereo not drawn) [Example 16, 5-Methyl-1-phenyl-1H-pyrazole-4-carboxylic acid (5,6-dihydro-4H-cyclopenta[b]thiophen-5-yl)amide]	0.2
O=C(NC1Cc2ccsc2C1)c1cnn(-c2ccccc2)c1C(F)(F)F (stereo not drawn) [Example 17, 1-Phenyl-5-trifluoromethyl-1H-pyrazole-4-carboxylic acid (5,6-dihydro-4H-cyclopenta[b]thiophen-5-yl)amide]	0.35
Cc1nn(C)cc1C(=O)NC1Cc2ccsc2C1 (stereo not drawn) [Example 20, 1,3-Dimethyl-1H-pyrazole-4-carboxylic acid (5,6-dihydro-4H-cyclopenta[b]thiophen-5-yl)amide]	9.8
Nc1ncccc1C(=O)NC1Cc2ccsc2C1 (stereo not drawn) [Example 21, 2-Amino-N-(5,6-dihydro-4H-cyclopenta[b]thiophen-5-yl)nicotinamide, trifluoroacetic acid salt]	4.8
Cc1ccc(C(=O)NC2Cc3ccsc3C2)cn1 (stereo not drawn) [Example 22, N-(5,6-Dihydro-4H-cyclopenta[b]thiophen-5-yl)-6-methylnicotinamide, trifluoroacetic acid salt]	1.6
O=C(NC1Cc2ccsc2C1)c1cccc(Cl)c1Cl (stereo not drawn) [Example 26, 2,3-Dichloro-N-(5,6-dihydro-4H-cyclopenta[b]thiophen-5-yl)benzamide]	1.5
Cc1ccc(C(=O)NC2Cc3ccsc3C2)c(C)c1 (stereo not drawn) [Example 27, N-(5,6-Dihydro-4H-cyclopenta[b]thiophen-5-yl)-2,4-dimethylbenzamide]	< 0.1
O=C(NC1Cc2ccsc2C1)c1ccc(F)cc1F (stereo not drawn) [Example 28, N-(5,6-Dihydro-4H-cyclopenta[b]thiophen-5-yl)-2,4-difluorobenzamide]	0.76
CS(=O)(=O)Nc1cccc(C(=O)NC2Cc3ccsc3C2)c1 (stereo not drawn) [Example 29, N-(5,6-Dihydro-4H-cyclopenta[b]thiophen-5-yl)-3-methylsulfonylaminobenzamide]	2.3
O=C(NC1Cc2ccsc2C1)c1cccc(N2CCOCC2)c1 (stereo not drawn) [Example 31, N-(5,6-Dihydro-4H-cyclopenta[b]thiophen-5-yl)-3-(morpholin-4-yl)benzamide]	3.3

Continued by falling EC50, values first:

EC50 [µM]	Compound
125	COCc1ccc(C(=O)NC2Cc3ccsc3C2)cn1 (stereo not drawn) [Example 24, N-(5,6-Dihydro4H-cyclopenta[b]thiophen-5-yl)-6-methoxymethylnicotinamide, trifluoroacetic acid salt]
20	Cc1nc(C)c(C(=O)NC2Cc3ccsc3C2)s1 (stereo not drawn) [Example 19, 2,4-Dimethylthiazole-5-carboxylic acid (5,6-dihydro-4H-cyclopenta[b]thiophen-5-yl)amide]
18	Nc1nccnc1C(=O)NC1Cc2ccsc2C1 (stereo not drawn) [Example 25, 3-Aminopyrazine-2-carboxylic acid (5,6-dihydro-4H-cyclopenta[b]thiophen-5-yl)amide]
11	O=C(NC1Cc2ccsc2C1)c1ccc(N2CCOCC2)nc1 (stereo not drawn) [Example 30, N-(5,6-Dihydro-4H-cyclopenta[b]thiophen-5-yl)-6-(morpholin-4-yl)nicotinamide, trifluoroacetic acid salt]
3.3	Cc1cc(C(=O)NC2Cc3ccsc3C2)c(C)n1Cc1ccncc1 (stereo not drawn) [Example 18, 2,5-Dimethyl-1-pyridin-4-ylmethyl-1H-pyrrole-3-carboxylic acid (5,6-dihydro-4H-cyclopenta[b]thiophen-5-yl)amide, trifluoroacetic acid salt]
3.1	Cc1nc2ccc(C(=O)NC3Cc4ccsc4C3)cc2[nH]1 (stereo not drawn) [Example 15, 2-Methyl-3H-benzimidazole-5-carboxylic acid (5,6-dihydro-4H-cyclopenta[b]thiophen-5-yl)amide, trifluoroacetic acid salt]
0.8	Cc1ccc(C(=O)NC2Cc3ccsc3C2)c(Cl)n1 (stereo not drawn) [Example 23, 2-Chloro-N-(5,6-dihydro-4H-cyclopenta[b]thiophen-5-yl)-6-methylnicotinamide]
0.62	Cc1ccc(C(=O)NC2Cc3ccsc3C2)c(C)n1 (stereo not drawn) [Example 13, N-(5,6-Dihydro-4H-cyclopenta[b]thiophen-5-yl)-2,6-dimethylnicotinamide, trifluoroacetic acid salt]
0.064	Cc1ccc(C(=O)NC2CCCc3cccnc3C2)c(C)c1 (stereo not drawn) [Example 11, 2,4-Dimethyl-N-(6,7,8,9-tetrahydro-5H-cyclohepta[b]pyridin-8-yl)benzamide]
